From US20140128260A1, “Compositions and Methods for Post Emergent Weed Control with Dim Herbicides and Gibberellic Acid” (Valent U.S.A. Corporation, priority 2012, published 2014)

Experiments:
Johnsongrass = test: Effect of clethodim and GA3 treatments on Johnsongrass, field plots (Example 1); type: in vivo, sorghum halepense
Description: In order to determine the efficacy of combinations of clethodim and GA3, numerous treatments were applied to plots in an area with abundant Johnsongrass growth.
The percent control of Johnsongrass plants was evaluated at 7, 18 and 28 days following the treatment. Effect of Clethodim and GA3 Treatments on Johnsongrass (% control).”
The percent control refers to the amount of dead tissue on the plants present. It would be dead plants plus desiccated foliage on partially killed plants.

[1] = test system: Glyphosate resistant corn; test: Effect of clethodim and GA3 treatments on planted glyphosate resistant corn (Example 2); type: in vivo
Description: A further study was performed in order to confirm the effect clethodim and GA3 treatments have on corn. Glyphosate resistant corn was planted with a conventional four-row planter. Treatments were applied 28 days after the plantings.
Effect of Clethodim and GA3 Treatments on corn (% control).

Structure (SMILES)	Johnsongrass % control (Johnsongrass; 7 DAT, clethodim 32 x g ai/a (9 fl oz/a of Selectmax), with 0.25% v/v NIS and 2.5 lb/acre AMS) [%]	Johnsongrass % control (Johnsongrass; 18 DAT, clethodim 32 x g ai/a (9 fl oz/a of Selectmax), with 0.25% v/v NIS and 2.5 lb/acre AMS) [%]	Johnsongrass % control (Johnsongrass; 28 DAT, clethodim 32 x g ai/a (9 fl oz/a of Selectmax), with 0.25% v/v NIS and 2.5 lb/acre AMS) [%]	Corn % control ([1]; 6 DAT, clethodim 32 gm ai/a, with NIS and AMS) [%]	Corn % control ([1]; 13 DAT, clethodim 32 gm ai/a, with NIS and AMS) [%]	Corn % control ([1]; 29 DAT, clethodim 32 gm ai/a, with NIS and AMS) [%]	Activity of clethodim on corn in the presence of GA3 ([1]; in vivo)	Johnsongrass % control (Johnsongrass; 7 DAT, GA3 5 g ai/a (5 fl oz/a of ProGibb 4%)) [%]	Johnsongrass % control (Johnsongrass; 7 DAT, GA3 25 g ai/a (25 fl oz/a of ProGibb 4%)) [%]	Johnsongrass % control (Johnsongrass; 18 DAT, GA3 5 g ai/a (5 fl oz/a of ProGibb 4%)) [%]	Johnsongrass % control (Johnsongrass; 18 DAT, GA3 25 g ai/a (25 fl oz/a of ProGibb 4%)) [%]	Johnsongrass % control (Johnsongrass; 28 DAT, GA3 5 g ai/a (5 fl oz/a of ProGibb 4%)) [%]	Johnsongrass % control (Johnsongrass; 28 DAT, GA3 25 g ai/a (25 fl oz/a of ProGibb 4%)) [%]	Effect of GA3 on the activity of clethodim on Johnsongrass (Johnsongrass; seven days following treatment)	Corn % control ([1]; 6 DAT, GA3 3 g ai/a, with 0.25% v/v NIS and 2.5 lb/acre AMS) [%]	Corn % control ([1]; 6 DAT, GA3 10 g ai/a, with NIS and AMS) [%]	Corn % control ([1]; 13 DAT, GA3 3 g ai/a, with NIS and AMS) [%]	Corn % control ([1]; 13 DAT, GA3 10 g ai/a, with NIS and AMS) [%]	Corn % control ([1]; 29 DAT, GA3 3 g ai/a, with NIS and AMS) [%]	Corn % control ([1]; 29 DAT, GA3 10 g ai/a, with NIS and AMS) [%]
CCSC(C)CC1CC(=O)C(C(CC)=NOC/C=C/Cl)=C(O)C1 (centres unmarked) [Clethodim, 2-[1-[[[(2E)-3-chloro-2-propen-1-yl]oxy]imino]propyl]-5-[2-(ethylthio)propyl]-3-hydroxy-2-cyclohexen-1-one]	37.21	85.66	89.26	48.33	88.33	96.00	significantly increased													
C=C1C[C@]23C[C@@]1(O)CC[C@H]2[C@@]12C=C[C@H](O)[C@@](C)(C(=O)O1)[C@H]2[C@@H]3C(=O)O [GA3, Gibberellic acid]								0	0	0.32	0	0	0	more than doubles the activity of clethodim	0	0	0	0	0	0
